According to ChEMBL document CHEMBL5728659, “Macrocyclic immunomodulators” (2021):

Experiment: Enzyme-Linked Immunosorbent Assay-ELISA: 96 Well plates were coated with 1 μg/mL of human PD-L1 (obtained from R&D) in PBS overnight at 4° C. The wells were then blocked with 2% BSA in PBS (W/V) with 0.05% TWEEN-20 for 1 hour at 37° C. The plates were washed 3 times with PBS/0.05% TWEEN-20 and the compounds were serial diluted (1:5) in dilution medium and added to the ELISA plates. Human PD-1 and biotin 0.3 μg/mL (ACRO Biosystems) were added and incubated for 1 hour at 37° C. then washed 3 times with PBS/0.05% TWEEN-20. A second block was performed with 2% BSA in PBS (W/V)/0.05% TWEEN-20 for 10 min at 37° C. and was washed 3 times with PBS/0.05% TWEEN-20. Streptavidin—HRP was added for 1 hour at 37° C. then washed 3 times with PBS/0.05% TWEEN-20. TMB substrate was added and reacted for 20 min at 37° C. A stop solution (2 N aqueous H2SO4) was added. The absorbance was read at 450 nm using a micro-plate spectrophotometer.

| IC50 | Compound |
| --- | --- |
| in the range around 10200 nM | Cc1c(COc2cc3c(cc2Cl)CN[C@H](C(=O)O)CCCCNC(=O)c2cncc-3c2)cccc1-c1ccccc1 |
| in the range around 300 nM | Cc1c(COc2cc3c(cc2Cl)CN[C@H](C(=O)O)COCCNC(=O)c2cncc(c2)CO3)cccc1-c1ccccc1 |
| in the range around 300 nM | Cc1c(COc2cc3c(cc2Cl)CN[C@H](CC(=O)O)CCCCNC(=O)c2cncc(c2)CO3)cccc1-c1ccccc1 |
| in the range around 300 nM | Cc1c(COc2cc3c(cc2Cl)CN[C@H](C(=O)O)CCCCNC(=O)CCCCO3)cccc1-c1ccccc1 |
| in the range around 300 nM | Cc1c(COc2cc3c(cc2Cl)CN[C@H](C(=O)O)CCCNC(=O)c2cncc(c2)CO3)cccc1-c1ccccc1 |
| in the range around 10200 nM | Cc1c(COc2cc3c(cc2Cl)CN[C@H](C(=O)O)CCCCNC(=O)c2cncc(c2)CO3)cccc1-c1cccc(OCCCCl)c1C |
| in the range around 300 nM | O=C1NCCCC[C@@H](C(=O)O)NCc2cc(Cl)c(O[C@H]3CCc4c(-c5ccccc5F)cccc43)cc2OCc2cncc1c2 |
| in the range around 300 nM | Cc1c(COc2cc3c(cc2Cl)CN[C@@H](CO)C(=O)NCCNC(=O)c2cncc(c2)CO3)cccc1-c1ccccc1 |
